Source: PMC6440464 (PeerJ, 2019)
Like-named read-outs stand apart in the source and are kept apart here.

Test: Pharmacokinetics study after separate oral administration in rats (HPLC-MS of plasma)
Format: in vivo, Sprague-Dawley rats
Details: for AUC(0-t) / MRT last / Tmax / CL/F / Cmax / half-life: po; for Tmax: read-out: Tmax (converted); for CL/F: read-out: CLz/F; for Cmax: read-out: Cmax; for half-life: read-out: t1/2z
Procedure: A total of 15 SPF Sprague-Dawley rats (SD, male, 190–210 g) were provided by Sino-British Sippr/BK Lab Animal Company Ltd. (Shanghai, China). The rats were kept in standard conditions (22–26 °C; 40–60% relative humidity; 12 h light/dark cycle). Throughout the rearing period, the animals had access to food and water ad libitum. Animal experiments were conducted in accordance with the standard ethical guidelines of the Laboratory Animal Management Committee of Jiangsu Province (SYXK (SU) 2016-0011).
Following 1 week of adaptation, the rats were fasted for about 12 h before dosing, with free access to water. […] After administration of the first dose, blood samples were taken from the retro-orbital vein at 0, 5, 15, 30, 60, 90, 120, 180, 240, 360, 480, and 1,440 min and collected in heparinized tubes. The samples were centrifuged at 3,500 rpm for 10 min at 4 °C and the plasma was stored at −80 °C until analysis.
An Agilent 1,200 series HPLC system (Agilent Technologies, Waldbronn, Germany) equipped with a quaternary pump on-line degasser, auto-sampler and column oven, and an SL G1946D quadruple mass spectrometer (Agilent Technologies, Santa Clara, CA, USA) equipped with an electrospray ionization (ESI) source, were used for separation and detection. Data were acquired and analyzed using Agilent ChemStation Software Version A.01.00 (Agilent Technologies, Santa Clara, CA, USA).
The separation was carried out with an Amethyst C18-H column (150 × 4.6 mm, 5 μm, Sepax Technologies, Newark, DE, USA) with a guard column SB-C18 (10 × 4.6 mm, 5 μm, Phenomenex Technologies, Torrance, USA) at a constant temperature of 25 °C.
The mass spectra were acquired using ESI interfaced to a single quadrupole mass spectrometer. The ionization conditions were as follows: drying gas (N2) flow rate of 11 L/min, drying gas temperature of 350 °C, nebulizing gas (N2) pressure of 35 psi, capillary voltage of 3,500 V, quad temperature of 100 °C, and fragment voltage of 110 V. A series of m/z were monitored using a timed program according to the retention times and characteristic ions for the corresponding HPLC-MS peak obtained by scanning from m/z 100–1,000 in the standard sample.
Briefly, an aliquot of plasma sample (100 μL) was spiked with 5% formic acid (10 μL) in centrifuge tube. Subsequently, hydrochloric acid (2 mol/L, 10 μL) and IS solution (960.00 ng/mL, 20 μL) were added. Then ethyl acetate/n-butyl alcohol (1:1 v/v; 1,000 μL) was used to extract the components. The samples were then homogenized by vortex mixing and centrifuged for 10 min at 14,000 rpm. After centrifugation, 800 μL of supernatant was transferred to another centrifuge tube and the sample was evaporated to dryness. The residues were dissolved in 100 μL of methanol and centrifuged for 10 min at 12,000 rpm. 50 μL of the supernatant was transferred to the vial and an aliquot of 5 μL was injected into the HPLC-MS system for analysis.
DAS 2.0 (Chinese Pharmacological Association, Shanghai, China) was used to calculate the pharmacokinetic parameters using the non-compartment model, including the area under curve (AUC), mean residence time (MRT), half-life ( t1/2z), clearance rate (CL), maximum plasma concentration (Cmax), and time (Tmax). All results are expressed as mean ± standard deviation (SD). One way analysis of variance followed by […] was used for comparison of different groups using Graph pad prism 5 software. A p-value of <0.05 was considered statistically significant.

[1] = male, Sprague-Dawley, rat, plasma, 50 mg/kg, IQ group (oral IQ 50 mg/kg), rat plasma, labelled substance = analyte, mean of 5 rats
[2] = male, Sprague-Dawley, rat, plasma, 50 mg/kg, IQ group: oral IQ 50 mg/kg, rat plasma, mean ± SD, n = 5
[3] = male, Sprague-Dawley, rat, plasma, 50 mg/kg, QG group (oral QG 50 mg/kg), rat plasma, labelled substance = analyte, mean of 5 rats
[4] = male, Sprague-Dawley, rat, plasma, 50 mg/kg, QG group: oral QG 50 mg/kg, rat plasma, mean ± SD, n = 5
[5] = male, Sprague-Dawley, rat, plasma, 50 mg/kg, Qr group (oral Qr 50 mg/kg), rat plasma, labelled substance = analyte, mean of 5 rats
[6] = male, Sprague-Dawley, rat, plasma, 50 mg/kg, Qr group: oral Qr 50 mg/kg, rat plasma, mean ± SD, n = 5

O=C(O)[C@H]1O[C@@H](Oc2c(-c3ccc(O)c(O)c3)oc3cc(O)cc(O)c3c2=O)[C@H](O)[C@@H](O)[C@@H]1O [QG, Quercetin-3-O-β-D-glucuronide]
AUC0−t (Qr group: oral Qr 50 mg/kg, rat plasma, mean ± SD, n = 5): 1,150.0 ± 454.2 mg/L*min | Shape of mean plasma concentration-time profile (after oral administration of QG 50 mg/kg): clear double peak phenomenon | concentration at 120 min (male, Sprague-Dawley, rat, plasma, oral, 50 mg/kg, IQ group (oral IQ 50 mg/kg), 120 min, individual rats NO. 1-5, read-out: Plasma concentrations): 872 ng/mL | AUC(0-t) (male, Sprague-Dawley, rat, plasma, 50 mg/kg, IQ group (oral IQ 50 mg/kg), rat plasma, labelled substance = analyte, individual rats No1-No5, read-out: AUC(0-t) (converted)): 8820 ng·h/mL | MRT last (male, Sprague-Dawley, rat, plasma, 50 mg/kg, IQ group (oral IQ 50 mg/kg), rat plasma, labelled substance = analyte, individual rats No1-No5, read-out: MRT(0-t) (converted)): 4.63 h | Tmax (male, Sprague-Dawley, rat, plasma, 50 mg/kg, IQ group (oral IQ 50 mg/kg), rat plasma, labelled substance = analyte, individual rats No1-No5): 0.5 h | AUC(0-t) (male, Sprague-Dawley, rat, plasma, 50 mg/kg, IQ group (oral IQ 50 mg/kg), rat plasma, labelled substance = analyte, mean of 5 rats, read-out: AUC(0-t) (converted)): 11200 ng·h/mL | CL/F [1]: 70 mL/min/kg | Cmax [1]: 3900 ng/mL | MRT last (male, Sprague-Dawley, rat, plasma, 50 mg/kg, IQ group (oral IQ 50 mg/kg), rat plasma, labelled substance = analyte, mean of 5 rats, read-out: MRT(0-t) (converted)): 5.93 h | Tmax [1]: 0.5 h | half-life [1]: 8.73 h | AUC(0-t) (male, Sprague-Dawley, rat, plasma, 50 mg/kg, IQ group: oral IQ 50 mg/kg, rat plasma, mean ± SD, n = 5, read-out: AUC0−t (converted)): 11200 ng·h/mL | Cmax [2]: 3910 ± 1340 ng/mL | MRT last (male, Sprague-Dawley, rat, plasma, 50 mg/kg, IQ group: oral IQ 50 mg/kg, rat plasma, mean ± SD, n = 5, read-out: MRT0−t (converted)): 5.93 h | Tmax [2]: 0.5 h | half-life [2]: 8.72 ± 3.17 h | MRT last (male, Sprague-Dawley, rat, plasma, 50 mg/kg, QG group (oral QG 50 mg/kg), rat plasma, labelled substance = analyte, individual rats No1-No5, read-out: MRT(0-t) (converted)): 6.52 h | half-life (male, Sprague-Dawley, rat, plasma, 50 mg/kg, QG group (oral QG 50 mg/kg), rat plasma, labelled substance = analyte, individual rats No1-No5): 4.98 h | AUC(0-t) (male, Sprague-Dawley, rat, plasma, 50 mg/kg, QG group (oral QG 50 mg/kg), rat plasma, labelled substance = analyte, mean of 5 rats, read-out: AUC(0-t) (converted)): 16000 ng·h/mL | CL/F [3]: 71 mL/min/kg | Cmax [3]: 2040 ng/mL | MRT last (male, Sprague-Dawley, rat, plasma, 50 mg/kg, QG group (oral QG 50 mg/kg), rat plasma, labelled substance = analyte, mean of 5 rats, read-out: MRT(0-t) (converted)): 7.3 h | Tmax [3]: 3.7 h | half-life [3]: 6.27 h | AUC(0-t) (male, Sprague-Dawley, rat, plasma, 50 mg/kg, QG group: oral QG 50 mg/kg, rat plasma, mean ± SD, n = 5, read-out: AUC0−t (converted)): 16000 ng·h/mL | Cmax [4]: 2040 ± 850 ng/mL | MRT last (male, Sprague-Dawley, rat, plasma, 50 mg/kg, QG group: oral QG 50 mg/kg, rat plasma, mean ± SD, n = 5, read-out: MRT0−t (converted)): 7.3 h | Tmax [4]: 3.7 h | half-life [4]: 6.27 ± 1.59 h | Tmax (male, Sprague-Dawley, rat, plasma, 50 mg/kg, Qr group (oral Qr 50 mg/kg), rat plasma, labelled substance = analyte, individual rats No1-No5): 0.5 h | AUC(0-t) (male, Sprague-Dawley, rat, plasma, 50 mg/kg, Qr group (oral Qr 50 mg/kg), rat plasma, labelled substance = analyte, mean of 5 rats, read-out: AUC(0-t) (converted)): 19200 ng·h/mL | CL/F [5]: 43 mL/min/kg | Cmax [5]: 6460 ng/mL | MRT last (male, Sprague-Dawley, rat, plasma, 50 mg/kg, Qr group (oral Qr 50 mg/kg), rat plasma, labelled substance = analyte, mean of 5 rats, read-out: MRT(0-t) (converted)): 5.27 h | Tmax [5]: 0.7 h | half-life [5]: 9.1 h | AUC(0-t) (male, Sprague-Dawley, rat, plasma, 50 mg/kg, Qr group: oral Qr 50 mg/kg, rat plasma, mean ± SD, n = 5, read-out: AUC0−t (converted)): 25800 ng·h/mL | Cmax [6]: 6460 ± 2940 ng/mL | MRT last (male, Sprague-Dawley, rat, plasma, 50 mg/kg, Qr group: oral Qr 50 mg/kg, rat plasma, mean ± SD, n = 5, read-out: MRT0−t (converted)): 5.26 h | Tmax [6]: 0.7 h | half-life [6]: 9.1 ± 7.28 h
